Drawing on article PMC8537277 (Pharmaceuticals, 2021), this text covers IC50 for six molecules.

Molecules are shown by their SMILES. Like-named read-outs stand apart in the source and are kept apart here. Where a SMILES comes first, the peptide text is derived from it.

Assay [1] deals with A/Parma/24/09 H1N1 oseltamivir-resistant virus.
For assay [2] the test system is unchanged. As to conditions: reference peptides; ref Scala et al. (2017) [14]; read-out: HI Titer (IC50) A/Parma/24/09 H1N1; cited from earlier work.
The mark [3] stands for this setting: A/Parma/24/09 oseltamivir-resistant virus, 1 h.

In turn, `CC(=O)N[C@@H](CO)C(=O)N[C@@H](C)C(=O)N[C@@H](CC(=O)O)C(=O)N[C@@H](CS)C(N)=O` [Peptide 8] (Ac-SADC-NH2) displayed an IC50 in assay [1] (setting [3]) of 0.0022 pM.

Regarding `CC(=O)N[C@@H](CO)C(=O)N[C@@H](CCCCN)C(=O)N[C@@H](Cc1c[nH]cn1)C(=O)N[C@@H](CO)C(N)=O` [Peptide 1, Ac-SKHS-NH2] (Ac-SKHS-NH2), the IC50 in assay [2] is 1.5 nM. Molecule `CC(=O)N[C@@H](CO)C(=O)N[C@@H](CC(C)C)C(=O)N[C@@H](CC(=O)O)C(=O)N[C@@H](C)C(N)=O` [Peptide 10] (Ac-SLDA-NH2) gave an IC50 in assay [1] (setting [3]) of 6100 pM. `CC(=O)N[C@@H](CO)C(=O)N[C@@H](CC(C)C)C(=O)N[C@@H](CC(=O)O)C(=O)N[C@@H](CS)C(N)=O` [Peptide 2, Ac-SLDC-NH2] (Ac-SLDC-NH2): in assay [2], the IC50 was 6 nM. `CC(=O)N[C@@H](CO)C(=O)N[C@@H](CCCCN)C(=O)N[C@@H](C)C(=O)N[C@@H](CO)C(N)=O` [Peptide 5] (Ac-SKAS-NH2) had an IC50 in assay [1] (setting [3]) of 2.9 pM.

Consider `CC(=O)N[C@@H](CO)C(=O)N[C@@H](C)C(=O)N[C@@H](Cc1c[nH]cn1)C(=O)N[C@@H](CO)C(N)=O` [Peptide 4, Ac-SAHS-NH2] (Ac-SAHS-NH2), for which, in assay [1] (read-out: HI Titer (IC50) A/Parma/24/09 H1N1, 50% inhibition of virus-induced hemagglutination, N.D. = not detectable at maximum tested concentration 12.5 × 10^3 nM), the IC50 was found to be 500 pM.
